The record followed here is ChEMBL document CHEMBL4419164, “Methods and compositions for inhibiting cnksr1” (2018).

One data set concerns HCC95. Briefly: Growth inhibition of human HCC95 cells incubated for 3 days. The format is functional, cell-based. The following applies: HCC95, 72 h.
Data set [1] in a line: Half life in beagle dog plasma at 50 ug/ml at 37 degC at pH 7.4. The format is ADME, cell-free, Canis lupus familiaris.
Data set [2] concerns the target T1, Connector enhancer of kinase suppressor of ras 1 (Homo sapiens) (UniProt Q969H4).
T1 sequence (whole entry): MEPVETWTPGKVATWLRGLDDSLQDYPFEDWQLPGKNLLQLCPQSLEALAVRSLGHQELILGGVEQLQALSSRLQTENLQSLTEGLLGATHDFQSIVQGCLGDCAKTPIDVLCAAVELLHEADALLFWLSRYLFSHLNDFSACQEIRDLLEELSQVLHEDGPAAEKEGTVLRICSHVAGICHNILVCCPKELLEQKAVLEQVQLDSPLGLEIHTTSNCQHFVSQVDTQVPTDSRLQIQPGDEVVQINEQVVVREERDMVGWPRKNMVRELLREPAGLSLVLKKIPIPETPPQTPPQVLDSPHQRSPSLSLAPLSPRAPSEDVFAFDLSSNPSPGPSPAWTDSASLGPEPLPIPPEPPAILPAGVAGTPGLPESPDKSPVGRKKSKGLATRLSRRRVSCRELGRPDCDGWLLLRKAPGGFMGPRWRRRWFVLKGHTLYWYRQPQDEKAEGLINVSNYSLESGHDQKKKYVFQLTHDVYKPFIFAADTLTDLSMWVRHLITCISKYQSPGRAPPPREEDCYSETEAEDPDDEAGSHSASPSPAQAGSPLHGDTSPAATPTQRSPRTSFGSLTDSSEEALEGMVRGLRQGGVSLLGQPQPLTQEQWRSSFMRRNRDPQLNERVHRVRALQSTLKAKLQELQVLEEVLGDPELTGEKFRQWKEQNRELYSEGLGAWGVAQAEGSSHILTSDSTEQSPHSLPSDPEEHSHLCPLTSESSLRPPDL
The data set can be described thus: Inhibition of GFP-tagged CNKSR1 (unknown origin) expressed in HEK293T cells assessed as inhibition of direct binding of CNKSR1 to mut-KRAS at 50 uM incubated for 4 hrs by fluorescence lifetime imaging microscopy. The format is cell-based.

Data set [3] has as its system NCI-H2122. The data set can be described thus: Growth inhibition of human NCI-H2122 cells relative to control. Format: functional, cell-based.
Data set [4] in a line: Drug metabolism in C57BL6 mouse plasma assessed as Cmax for 2-(4-oxo-3-((4-p-tolylthiazol-2-yl)methyl)-3,4-dihydrophthalazin-1-yl)acetic acid at 250 mg/kg, po dosed via gavage as single administration. The format is ADME, organism-based. More on the design: dose 250 mg/kg, route oral. The conditions noted are these: in vivo.
Data set [5] is described as follows: Growth inhibition of human […] cells incubated for 3 days. The format is functional. The conditions noted are these: 72 h.
Data set [6] can be described thus: Half life in C57BL6 mouse at 250 mg/kg, po dosed via gavage as single administration. The following applies: in vivo. The format is ADME, organism-based.
The test system of data set [7] is HCC515. Briefly: Growth inhibition of human HCC515 cells relative to control. The format is functional, cell-based.
In data set [8] the target is Rho guanine nucleotide exchange factor TIAM1 (Homo sapiens) (UniProt Q13009). Briefly: Binding affinity to TIAM1 PH-domain (unknown origin) at 0.01 to 50 uM by SPR spectroscopy. A general note: SPR reads the build-up and loss of mass on a sensor chip optically.
Data set [9] deals with NCI-H2122. The data set can be described thus: Antitumor activity against human NCI-H2122 cells xenografted in SCID mouse assessed as inhibition of tumor growth at 200 mg/kg/day dosed via gavage daily for 20 days relative to control. Format: functional. The conditions noted are these: NCI-H2122, po, 480 h, read-out: TGI. In general terms: In xenograft studies the graft and the host belong to different species.

Data set [10] in a line: Half life in 10% fetal bovine serum at 50 ug/ml at 37 degC at pH 7.4. The format is ADME, cell-free, Bos taurus. The following applies: cattle.
For data set [11], the target named is T2, carboxylesterase 1 (liver carboxylesterase 1) (Homo sapiens, UniProt P23141).
T2 sequence (P23141 whole entry): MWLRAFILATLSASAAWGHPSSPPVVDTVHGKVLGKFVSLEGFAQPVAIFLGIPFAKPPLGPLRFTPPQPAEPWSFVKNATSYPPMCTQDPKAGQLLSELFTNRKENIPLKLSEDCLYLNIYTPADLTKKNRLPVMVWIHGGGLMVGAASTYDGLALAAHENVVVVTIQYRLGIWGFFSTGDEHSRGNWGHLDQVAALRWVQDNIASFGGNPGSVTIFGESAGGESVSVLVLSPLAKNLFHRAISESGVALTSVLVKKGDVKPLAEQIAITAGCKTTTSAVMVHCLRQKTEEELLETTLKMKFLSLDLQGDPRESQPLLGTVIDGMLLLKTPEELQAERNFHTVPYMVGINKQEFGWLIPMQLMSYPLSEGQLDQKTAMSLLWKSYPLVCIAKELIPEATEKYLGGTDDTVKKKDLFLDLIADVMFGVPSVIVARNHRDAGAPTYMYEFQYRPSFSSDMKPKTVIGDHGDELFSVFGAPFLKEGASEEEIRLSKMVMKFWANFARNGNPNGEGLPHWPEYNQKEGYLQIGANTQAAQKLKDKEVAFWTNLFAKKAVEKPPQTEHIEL
Briefly: Stability assessed as recombinant human carboxyesterase-1 mediated compound hydrolysis by measuring half life at 50 ug/ml at 37 degC at pH 7.4. The following applies: recombinant human carboxylesterase-1, pH 7.4. The format is ADME.

Data set [12] concerns the target T3, 3-phosphoinositide-dependent protein kinase 1 (Homo sapiens) (UniProt O15530).
T3 sequence (whole entry): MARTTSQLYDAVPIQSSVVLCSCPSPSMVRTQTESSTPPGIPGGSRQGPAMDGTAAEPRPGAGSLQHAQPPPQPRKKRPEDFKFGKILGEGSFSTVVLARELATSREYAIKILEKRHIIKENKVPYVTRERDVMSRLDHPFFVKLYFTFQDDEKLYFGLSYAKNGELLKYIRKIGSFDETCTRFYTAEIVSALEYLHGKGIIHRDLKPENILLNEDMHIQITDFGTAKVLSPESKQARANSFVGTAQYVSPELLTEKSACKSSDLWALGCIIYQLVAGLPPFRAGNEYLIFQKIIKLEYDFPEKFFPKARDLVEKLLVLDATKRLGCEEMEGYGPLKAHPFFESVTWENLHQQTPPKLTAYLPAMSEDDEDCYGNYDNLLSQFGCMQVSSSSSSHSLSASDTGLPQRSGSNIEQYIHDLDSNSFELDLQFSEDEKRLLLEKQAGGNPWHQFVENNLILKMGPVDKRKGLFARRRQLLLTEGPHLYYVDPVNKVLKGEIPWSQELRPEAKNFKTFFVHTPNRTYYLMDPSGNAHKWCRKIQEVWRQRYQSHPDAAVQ
The data set can be described thus: Binding affinity to PDPK1 PH-domain (unknown origin) at 0.01 to 50 uM by SPR spectroscopy.

Data set [13] has as its target T1, Connector enhancer of kinase suppressor of ras 1 (Homo sapiens). The data set can be described thus: Inhibition of CNKSR1 (unknown origin) assessed as reduction in inhibition of KRas signaling effectors by measuring GTP-RalA levels at 20 uM by cell based assay.
For data set [14] the target is unchanged. Briefly: Inhibition of GFP-tagged CNKSR1 (unknown origin) expressed in HEK293T cells assessed as reduction in total mutant-KRas protein at 50 uM incubated for 4 hrs by confocal imaging assay. Format: cell-based.
In data set [15] the test system is HCC515. The data set can be described thus: Growth inhibition of human HCC515 cells incubated for 3 days. Format: functional, cell-based. The following applies: HCC515, 72 h.
In data set [16] the target is T1, Connector enhancer of kinase suppressor of ras 1 (Homo sapiens). Briefly: Inhibition of CNKSR1 (unknown origin) assessed as reduction in inhibition of KRas signaling effectors by measuring p-MAPK levels at 20 uM by cell based assay.

The structures appear in SMILES notation. The source made the active and inactive calls. The calls are words filed in the database; no cut-off is given here.

Sequence of Rho guanine nucleotide exchange factor TIAM1 (Homo sapiens) (Q13009 whole entry): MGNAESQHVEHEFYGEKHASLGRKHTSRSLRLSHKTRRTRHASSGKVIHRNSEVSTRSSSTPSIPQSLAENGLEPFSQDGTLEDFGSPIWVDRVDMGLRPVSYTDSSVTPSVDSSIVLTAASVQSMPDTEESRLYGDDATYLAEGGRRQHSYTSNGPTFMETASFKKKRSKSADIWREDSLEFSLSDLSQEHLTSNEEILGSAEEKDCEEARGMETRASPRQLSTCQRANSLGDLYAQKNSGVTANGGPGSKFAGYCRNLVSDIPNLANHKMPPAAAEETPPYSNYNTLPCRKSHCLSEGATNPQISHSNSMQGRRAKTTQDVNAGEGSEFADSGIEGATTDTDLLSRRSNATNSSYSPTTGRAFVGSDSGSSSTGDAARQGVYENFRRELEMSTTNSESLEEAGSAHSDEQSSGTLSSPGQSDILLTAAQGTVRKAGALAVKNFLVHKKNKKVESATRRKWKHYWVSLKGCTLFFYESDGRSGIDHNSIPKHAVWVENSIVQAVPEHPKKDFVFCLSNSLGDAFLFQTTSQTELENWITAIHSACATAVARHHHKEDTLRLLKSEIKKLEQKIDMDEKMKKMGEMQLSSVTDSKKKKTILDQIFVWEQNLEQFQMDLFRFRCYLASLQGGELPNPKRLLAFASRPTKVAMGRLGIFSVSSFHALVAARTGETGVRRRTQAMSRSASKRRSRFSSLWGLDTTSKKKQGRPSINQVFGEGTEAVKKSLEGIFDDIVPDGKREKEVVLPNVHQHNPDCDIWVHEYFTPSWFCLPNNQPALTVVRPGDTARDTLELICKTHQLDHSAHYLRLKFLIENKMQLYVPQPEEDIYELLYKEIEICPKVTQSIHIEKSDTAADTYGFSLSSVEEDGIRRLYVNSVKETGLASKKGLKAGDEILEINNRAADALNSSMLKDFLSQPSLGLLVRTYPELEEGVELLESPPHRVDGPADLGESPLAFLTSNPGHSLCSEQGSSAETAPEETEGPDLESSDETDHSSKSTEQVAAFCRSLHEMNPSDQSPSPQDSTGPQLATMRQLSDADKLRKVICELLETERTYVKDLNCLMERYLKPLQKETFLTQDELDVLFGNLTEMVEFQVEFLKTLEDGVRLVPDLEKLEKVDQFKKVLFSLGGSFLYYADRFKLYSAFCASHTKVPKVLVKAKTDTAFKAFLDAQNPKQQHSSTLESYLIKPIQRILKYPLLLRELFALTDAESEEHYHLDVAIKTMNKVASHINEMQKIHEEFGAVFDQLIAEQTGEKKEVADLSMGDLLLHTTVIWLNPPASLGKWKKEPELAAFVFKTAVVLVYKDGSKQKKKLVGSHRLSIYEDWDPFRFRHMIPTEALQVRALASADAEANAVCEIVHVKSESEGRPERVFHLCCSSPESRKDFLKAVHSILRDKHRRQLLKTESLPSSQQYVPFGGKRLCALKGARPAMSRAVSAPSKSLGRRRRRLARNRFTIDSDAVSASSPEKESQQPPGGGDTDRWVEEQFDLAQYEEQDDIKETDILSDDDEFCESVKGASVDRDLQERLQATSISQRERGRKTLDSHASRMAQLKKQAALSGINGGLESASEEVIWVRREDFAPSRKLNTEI

In the case of `CCOC(=O)Cc1nn(Cc2nc(-c3ccc(C)cc3)cs2)c(=O)c2ccccc12`, the IC50 with HCC95 is greater than 100 µM; in [5] it was 51 µM; with HCC515 [15], 70 µM. Also, the results for the half-life at 50 ug/ml in data set [1], in data set [10] and in data set [11] were 9.3 h, 13.2 h and 0.317 h, respectively. The inhibition result in data set [2], in data set [13], in [14] and in data set [16] was “Active” in each case. The “growth inhibition (GI)” value in the data set on NCI-H2122 [3] and with HCC515 [7] was “Active” each time. Also, the Cmax in [4] was 128 µM. The half-life in [6] is 6 h. Further, the result in data set [8] and in data set [12] was inactive. In addition, the inhibition in vivo at 200 mg/kg/day in the data set with NCI-H2122 [9] was 45%.

Broadly, the IC50 is the concentration at which inhibition is half-maximal. A higher IC50 goes with lower potency. Broadly, the half-life is the time in which the quantity being followed falls by half. For orientation: Cmax means the highest concentration seen after dosing.
